Experiments:
[1] = target: Tyrosine-protein kinase BTK (Homo sapiens) (UniProt Q06187); conditions: Compound concentration 100.0 nM
[2] = target: Serine/threonine-protein kinase D3 (Homo sapiens) (UniProt O94806); conditions: Compound concentration 100.0 nM
[3] = system: Tyrosine-protein kinase ABL1 (Homo sapiens), P00519 [T315I]; conditions: Compound concentration 100.0 nM
[4] = target: Mitogen-activated protein kinase kinase kinase kinase 3 (Homo sapiens) (UniProt Q8IVH8); conditions: Compound concentration 100.0 nM
Sequence of Mitogen-activated protein kinase kinase kinase kinase 3 (Homo sapiens) (Q8IVH8 whole entry): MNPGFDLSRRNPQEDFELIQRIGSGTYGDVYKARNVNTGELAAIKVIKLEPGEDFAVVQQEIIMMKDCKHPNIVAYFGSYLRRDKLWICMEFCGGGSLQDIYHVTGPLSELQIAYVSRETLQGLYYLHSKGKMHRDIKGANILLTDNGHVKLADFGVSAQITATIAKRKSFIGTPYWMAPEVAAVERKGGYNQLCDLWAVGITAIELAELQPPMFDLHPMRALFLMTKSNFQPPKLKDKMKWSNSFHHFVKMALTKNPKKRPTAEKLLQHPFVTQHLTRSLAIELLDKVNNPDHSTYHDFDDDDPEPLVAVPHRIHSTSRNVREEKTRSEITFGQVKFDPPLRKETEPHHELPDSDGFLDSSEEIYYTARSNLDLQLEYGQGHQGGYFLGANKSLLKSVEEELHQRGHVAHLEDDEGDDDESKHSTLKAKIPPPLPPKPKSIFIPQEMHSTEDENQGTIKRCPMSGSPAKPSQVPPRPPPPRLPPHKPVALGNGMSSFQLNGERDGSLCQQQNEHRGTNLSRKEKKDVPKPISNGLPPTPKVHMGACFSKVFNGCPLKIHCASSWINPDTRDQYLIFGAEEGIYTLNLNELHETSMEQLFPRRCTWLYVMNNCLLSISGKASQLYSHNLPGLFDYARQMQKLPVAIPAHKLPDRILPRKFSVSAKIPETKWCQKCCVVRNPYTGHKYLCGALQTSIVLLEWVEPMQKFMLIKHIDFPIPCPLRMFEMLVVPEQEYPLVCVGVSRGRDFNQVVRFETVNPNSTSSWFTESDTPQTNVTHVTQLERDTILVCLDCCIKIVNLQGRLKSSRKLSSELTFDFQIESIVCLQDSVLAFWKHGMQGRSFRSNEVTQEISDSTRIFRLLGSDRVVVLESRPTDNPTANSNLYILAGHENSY

[5] = target: Serine/threonine-protein kinase MAK (Homo sapiens) (UniProt P20794); conditions: Compound concentration 100.0 nM
[6] = target: Serine/threonine-protein kinase 4 (Homo sapiens) (UniProt Q13043); conditions: Compound concentration 100.0 nM
Sequence of Serine/threonine-protein kinase 4 (Homo sapiens) (Q13043 whole entry): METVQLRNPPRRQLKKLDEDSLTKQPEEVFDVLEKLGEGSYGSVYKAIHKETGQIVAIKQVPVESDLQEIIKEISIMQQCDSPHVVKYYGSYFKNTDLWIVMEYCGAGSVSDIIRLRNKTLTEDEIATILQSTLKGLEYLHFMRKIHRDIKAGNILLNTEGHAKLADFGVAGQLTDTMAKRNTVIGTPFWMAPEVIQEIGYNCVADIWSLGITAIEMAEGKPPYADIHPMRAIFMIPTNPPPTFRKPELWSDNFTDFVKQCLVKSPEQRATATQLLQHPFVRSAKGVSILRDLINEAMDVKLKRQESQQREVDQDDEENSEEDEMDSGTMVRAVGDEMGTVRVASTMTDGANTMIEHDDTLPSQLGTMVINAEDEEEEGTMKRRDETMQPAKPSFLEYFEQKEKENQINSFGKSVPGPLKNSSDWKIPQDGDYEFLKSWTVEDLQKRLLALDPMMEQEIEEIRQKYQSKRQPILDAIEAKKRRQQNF

[7] = target: RAC-alpha serine/threonine-protein kinase (Homo sapiens) (UniProt P31749); conditions: Compound concentration 100.0 nM
[8] = target: Muscle, skeletal receptor tyrosine-protein kinase (Homo sapiens) (UniProt O15146); conditions: Compound concentration 100.0 nM
[9] = target: Receptor-type tyrosine-protein kinase FLT3 (Homo sapiens) (UniProt P36888); conditions: Compound concentration 100.0 nM
[10] = target: 5-hydroxytryptamine receptor 1B (Homo sapiens) (UniProt P28222); conditions: Compound concentration 10.0 uM
[11] = target: Mitogen-activated protein kinase kinase kinase kinase 5 (Homo sapiens) (UniProt Q9Y4K4); conditions: Compound concentration 100.0 nM
[12] = target: Serine/threonine-protein kinase 33 (Homo sapiens) (UniProt Q9BYT3); conditions: Compound concentration 100.0 nM
[13] = system: Epidermal growth factor receptor (Homo sapiens), P00533 [UNDEFINED MUTATION]; conditions: Compound concentration 100.0 nM
[14] = target: Beta-2 adrenergic receptor (Homo sapiens) (UniProt P07550); conditions: Compound concentration 10.0 uM
[15] = target: Ribosomal protein S6 kinase alpha-6 (Homo sapiens) (UniProt Q9UK32); conditions: Compound concentration 100.0 nM
[16] = target: Serine/threonine-protein kinase RIO3 (Homo sapiens) (UniProt O14730); conditions: Compound concentration 100.0 nM
[17] = target: Dual specificity testis-specific protein kinase 1 (Homo sapiens) (UniProt Q15569); conditions: Compound concentration 100.0 nM
[18] = target: Homeodomain-interacting protein kinase 3 (Homo sapiens) (UniProt Q9H422); conditions: Compound concentration 100.0 nM
[19] = target: Casein kinase I isoform gamma-1 (Homo sapiens) (UniProt Q9HCP0); conditions: Compound concentration 100.0 nM
[20] = target: 5-hydroxytryptamine receptor 6 (Homo sapiens) (UniProt P50406); conditions: Compound concentration 10.0 uM
[21] = system: Proto-oncogene tyrosine-protein kinase receptor Ret (Homo sapiens), P07949 [V804L]; conditions: Compound concentration 100.0 nM
[22] = target: Testis-specific serine/threonine-protein kinase 1 (Homo sapiens) (UniProt Q9BXA7); conditions: Compound concentration 100.0 nM
[23] = target: Homeodomain-interacting protein kinase 2 (Homo sapiens) (UniProt Q9H2X6); conditions: Compound concentration 100.0 nM
[24] = system: Tyrosine-protein kinase ABL1 (Homo sapiens), P00519 [T315I]; conditions: Compound concentration 100.0 nM; remark: listed apart in the source
[25] = target: Mitogen-activated protein kinase kinase kinase 7 (Homo sapiens) (UniProt O43318); conditions: Compound concentration 100.0 nM
Sequence of Mitogen-activated protein kinase kinase kinase 7 (Homo sapiens) (O43318 whole entry): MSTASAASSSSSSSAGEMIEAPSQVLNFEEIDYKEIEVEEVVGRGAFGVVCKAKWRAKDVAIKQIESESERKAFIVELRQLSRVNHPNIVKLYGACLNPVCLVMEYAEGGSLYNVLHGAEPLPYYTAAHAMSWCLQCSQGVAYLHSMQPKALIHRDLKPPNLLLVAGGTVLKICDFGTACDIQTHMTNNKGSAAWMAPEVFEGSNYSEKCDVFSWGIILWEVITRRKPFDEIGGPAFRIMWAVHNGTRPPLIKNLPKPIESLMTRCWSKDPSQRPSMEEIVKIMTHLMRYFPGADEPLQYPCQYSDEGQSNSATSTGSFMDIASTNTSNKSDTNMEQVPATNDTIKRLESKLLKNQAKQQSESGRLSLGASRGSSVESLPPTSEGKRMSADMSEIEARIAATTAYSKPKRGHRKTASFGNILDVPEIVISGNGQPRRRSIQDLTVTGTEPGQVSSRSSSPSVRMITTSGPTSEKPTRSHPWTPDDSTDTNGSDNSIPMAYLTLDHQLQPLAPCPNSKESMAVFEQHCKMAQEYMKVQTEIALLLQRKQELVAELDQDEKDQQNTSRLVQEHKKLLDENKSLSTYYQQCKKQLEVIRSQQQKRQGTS

[26] = target: Homeodomain-interacting protein kinase 1 (Homo sapiens) (UniProt Q86Z02); conditions: Compound concentration 100.0 nM
Sequence of Homeodomain-interacting protein kinase 1 (Homo sapiens) (Q86Z02 whole entry, looked up): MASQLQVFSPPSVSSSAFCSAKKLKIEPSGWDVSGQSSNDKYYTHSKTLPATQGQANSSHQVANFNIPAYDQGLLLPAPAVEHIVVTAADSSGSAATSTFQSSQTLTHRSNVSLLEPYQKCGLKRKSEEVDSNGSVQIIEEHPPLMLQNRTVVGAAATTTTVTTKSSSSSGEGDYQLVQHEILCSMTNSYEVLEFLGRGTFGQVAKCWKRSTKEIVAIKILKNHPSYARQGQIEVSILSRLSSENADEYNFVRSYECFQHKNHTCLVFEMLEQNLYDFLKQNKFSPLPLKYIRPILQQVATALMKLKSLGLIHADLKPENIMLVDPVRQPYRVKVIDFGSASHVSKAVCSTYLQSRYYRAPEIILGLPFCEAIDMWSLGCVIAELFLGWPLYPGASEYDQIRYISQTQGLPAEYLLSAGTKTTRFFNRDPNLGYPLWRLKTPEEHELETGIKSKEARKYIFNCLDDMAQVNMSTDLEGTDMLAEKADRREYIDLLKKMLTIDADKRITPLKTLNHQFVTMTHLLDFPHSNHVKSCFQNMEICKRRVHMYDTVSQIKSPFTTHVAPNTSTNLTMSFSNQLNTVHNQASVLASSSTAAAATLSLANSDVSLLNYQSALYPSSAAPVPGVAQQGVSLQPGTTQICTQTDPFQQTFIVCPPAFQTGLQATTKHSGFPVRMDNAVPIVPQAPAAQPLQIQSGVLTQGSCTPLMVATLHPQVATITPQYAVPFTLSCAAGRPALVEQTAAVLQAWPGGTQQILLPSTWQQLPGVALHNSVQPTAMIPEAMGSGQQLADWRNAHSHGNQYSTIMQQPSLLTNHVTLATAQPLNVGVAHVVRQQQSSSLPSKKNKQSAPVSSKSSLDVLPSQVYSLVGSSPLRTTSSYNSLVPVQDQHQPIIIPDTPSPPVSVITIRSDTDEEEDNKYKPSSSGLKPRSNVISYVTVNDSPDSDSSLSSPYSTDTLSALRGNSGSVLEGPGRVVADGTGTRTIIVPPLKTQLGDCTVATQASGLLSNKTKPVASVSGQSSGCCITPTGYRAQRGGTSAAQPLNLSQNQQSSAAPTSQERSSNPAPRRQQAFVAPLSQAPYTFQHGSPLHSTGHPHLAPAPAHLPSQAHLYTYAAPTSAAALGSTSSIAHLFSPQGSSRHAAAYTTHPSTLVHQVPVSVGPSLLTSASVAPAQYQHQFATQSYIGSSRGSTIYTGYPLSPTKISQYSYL

[27] = target: Tyrosine-protein kinase Fyn (Homo sapiens) (UniProt P06241); conditions: Compound concentration 100.0 nM
[28] = target: Serine/threonine-protein kinase Nek2 (Homo sapiens) (UniProt P51955); conditions: Compound concentration 100.0 nM
[29] = target: cAMP-dependent protein kinase catalytic subunit beta (Homo sapiens) (UniProt P22694); conditions: Compound concentration 100.0 nM
[30] = system: Receptor-type tyrosine-protein kinase FLT3 (Homo sapiens), P36888 [D835Y]; conditions: Compound concentration 100.0 nM
[31] = system: Epidermal growth factor receptor (Homo sapiens), P00533 [T790M]; conditions: Compound concentration 100.0 nM
[32] = target: SNF-related serine/threonine-protein kinase (Homo sapiens) (UniProt Q9NRH2); conditions: Compound concentration 100.0 nM
[33] = target: Dual specificity mitogen-activated protein kinase kinase 4 (Homo sapiens) (UniProt P45985); conditions: Compound concentration 100.0 nM
[34] = target: Ribosomal protein S6 kinase alpha-2 (Homo sapiens) (UniProt Q15349); conditions: Compound concentration 100.0 nM
[35] = target: MAP kinase-activated protein kinase 2 (Homo sapiens) (UniProt P49137); conditions: Compound concentration 100.0 nM
[36] = system: Mast/stem cell growth factor receptor Kit (Homo sapiens), P10721 [D816H]; conditions: Compound concentration 100.0 nM
[37] = target: Proto-oncogene tyrosine-protein kinase Src (Homo sapiens) (UniProt P12931); conditions: Compound concentration 100.0 nM
[38] = target: Muscarinic acetylcholine receptor M3 (Homo sapiens) (UniProt P20309); conditions: Compound concentration 10.0 uM
[39] = target: Serine/threonine-protein kinase NIM1 (Homo sapiens) (UniProt Q8IY84); conditions: Compound concentration 100.0 nM
[40] = target: Tyrosine-protein kinase Mer (Homo sapiens) (UniProt Q12866); conditions: Compound concentration 100.0 nM
[41] = target: RAF proto-oncogene serine/threonine-protein kinase (Homo sapiens) (UniProt P04049); conditions: Compound concentration 100.0 nM
[42] = target: cGMP-dependent protein kinase 2 (Homo sapiens) (UniProt Q13237); conditions: Compound concentration 100.0 nM
[43] = target: Tyrosine-protein kinase ABL2 (Homo sapiens) (UniProt P42684); conditions: Compound concentration 100.0 nM
Sequence of Tyrosine-protein kinase ABL2 (Homo sapiens) (P42684 whole entry): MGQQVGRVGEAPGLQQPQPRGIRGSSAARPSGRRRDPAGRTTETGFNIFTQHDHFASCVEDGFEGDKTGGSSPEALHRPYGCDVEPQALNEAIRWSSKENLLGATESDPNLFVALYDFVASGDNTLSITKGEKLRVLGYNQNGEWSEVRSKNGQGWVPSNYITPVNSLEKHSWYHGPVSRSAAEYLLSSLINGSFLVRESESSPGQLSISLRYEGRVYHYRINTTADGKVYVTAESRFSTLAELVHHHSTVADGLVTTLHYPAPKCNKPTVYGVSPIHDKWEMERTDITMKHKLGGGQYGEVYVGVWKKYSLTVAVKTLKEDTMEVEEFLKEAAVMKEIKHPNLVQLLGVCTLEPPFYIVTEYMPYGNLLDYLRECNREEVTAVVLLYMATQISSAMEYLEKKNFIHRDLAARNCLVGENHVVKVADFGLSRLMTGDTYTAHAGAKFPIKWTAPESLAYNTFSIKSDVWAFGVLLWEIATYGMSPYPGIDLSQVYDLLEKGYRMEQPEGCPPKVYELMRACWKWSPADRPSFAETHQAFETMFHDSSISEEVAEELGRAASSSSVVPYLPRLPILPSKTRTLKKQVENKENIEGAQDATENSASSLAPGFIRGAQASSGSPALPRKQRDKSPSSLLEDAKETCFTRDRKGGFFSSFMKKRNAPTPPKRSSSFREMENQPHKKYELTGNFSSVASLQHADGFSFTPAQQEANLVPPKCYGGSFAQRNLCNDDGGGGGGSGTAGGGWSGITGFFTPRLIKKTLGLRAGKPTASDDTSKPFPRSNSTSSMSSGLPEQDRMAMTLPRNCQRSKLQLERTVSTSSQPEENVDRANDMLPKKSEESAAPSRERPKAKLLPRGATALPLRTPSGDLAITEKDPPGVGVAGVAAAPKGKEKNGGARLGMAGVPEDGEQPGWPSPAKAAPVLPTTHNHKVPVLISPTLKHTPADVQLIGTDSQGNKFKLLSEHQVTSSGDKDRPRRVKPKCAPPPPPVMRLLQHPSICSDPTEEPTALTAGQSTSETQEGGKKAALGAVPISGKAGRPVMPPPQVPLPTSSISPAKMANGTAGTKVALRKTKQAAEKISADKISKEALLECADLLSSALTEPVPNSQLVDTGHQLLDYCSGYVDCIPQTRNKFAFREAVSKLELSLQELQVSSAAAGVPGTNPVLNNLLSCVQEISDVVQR

[44] = target: Mast/stem cell growth factor receptor Kit (Homo sapiens) (UniProt P10721); conditions: Compound concentration 100.0 nM
[45] = target: Aurora kinase C (Homo sapiens) (UniProt Q9UQB9); conditions: Compound concentration 100.0 nM

Sequence of Tyrosine-protein kinase BTK (Homo sapiens) (Q06187 whole entry): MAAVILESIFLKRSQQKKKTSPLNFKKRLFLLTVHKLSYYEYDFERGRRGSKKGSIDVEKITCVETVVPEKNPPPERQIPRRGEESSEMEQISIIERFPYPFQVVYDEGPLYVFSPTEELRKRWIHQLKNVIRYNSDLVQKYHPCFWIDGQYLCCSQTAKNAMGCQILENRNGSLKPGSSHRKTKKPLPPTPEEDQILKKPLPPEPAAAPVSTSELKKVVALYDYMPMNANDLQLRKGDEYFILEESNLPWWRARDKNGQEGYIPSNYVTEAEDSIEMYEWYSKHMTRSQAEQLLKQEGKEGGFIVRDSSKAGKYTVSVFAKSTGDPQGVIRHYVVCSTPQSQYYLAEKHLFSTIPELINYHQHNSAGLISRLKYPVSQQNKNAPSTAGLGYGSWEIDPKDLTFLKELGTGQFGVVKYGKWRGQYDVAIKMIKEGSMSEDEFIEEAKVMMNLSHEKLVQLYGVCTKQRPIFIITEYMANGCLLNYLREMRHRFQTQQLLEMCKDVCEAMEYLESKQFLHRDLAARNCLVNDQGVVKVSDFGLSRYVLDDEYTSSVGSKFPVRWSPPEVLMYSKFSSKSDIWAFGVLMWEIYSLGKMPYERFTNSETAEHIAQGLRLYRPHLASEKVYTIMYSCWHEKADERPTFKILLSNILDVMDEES

CCOC(=O)c1cc2cc(-c3cc(C(=O)NCc4ccc(C(=O)O)cc4)nn3C)ccc2[nH]1 [BI 4394]
residual activity [1]: 77% | residual activity [2]: 100% | residual activity [3]: 92% | residual activity [4]: 89% | residual activity [5]: 100% | residual activity [6]: 100% | residual activity [7]: 100% | residual activity [8]: 64% | residual activity [9]: 98% | inhibition [10]: 6.12% | residual activity [11]: 93% | residual activity [12]: 100% | residual activity [13]: 94% | inhibition [14]: -7.76% | residual activity [15]: 95% | residual activity [16]: 100% | residual activity [17]: 97% | residual activity [18]: 81% | residual activity [19]: 100% | inhibition [20]: 4.01% | residual activity [21]: 99% | residual activity [22]: 100% | residual activity [23]: 82% | residual activity [24]: 83% | residual activity [25]: 80% | residual activity [26]: 91% | residual activity [27]: 100% | residual activity [28]: 99% | residual activity [29]: 86% | residual activity [30]: 92% | residual activity [31]: 89% | residual activity [32]: 80% | residual activity [33]: 93% | residual activity [34]: 100% | residual activity [35]: 72% | residual activity [36]: 75% | residual activity [37]: 93% | inhibition [38]: 4.89% | residual activity [39]: 79% | residual activity [40]: 100% | residual activity [41]: 100% | residual activity [42]: 93% | residual activity [43]: 100% | residual activity [44]: 83% | residual activity [45]: 100%

Cn1nc(C(=O)NCc2ccc(C(=O)O)cc2)cc1-c1ccc2[nH]ccc2c1 [BI 4395]
residual activity [1]: 77% | residual activity [2]: 89% | residual activity [3]: 71% | residual activity [4]: 97% | residual activity [5]: 92% | residual activity [6]: 80% | residual activity [7]: 100% | residual activity [8]: 95% | residual activity [9]: 95% | inhibition [10]: 5.48% | residual activity [11]: 96% | residual activity [12]: 87% | residual activity [13]: 92% | inhibition [14]: 6.74% | residual activity [15]: 86% | residual activity [16]: 83% | residual activity [17]: 92% | residual activity [18]: 88% | residual activity [19]: 91% | inhibition [20]: 8.85% | residual activity [21]: 45% | residual activity [22]: 100% | residual activity [23]: 97% | residual activity [24]: 73% | residual activity [25]: 95% | residual activity [26]: 85% | residual activity [27]: 98% | residual activity [28]: 95% | residual activity [29]: 98% | residual activity [30]: 81% | residual activity [31]: 100% | residual activity [32]: 92% | residual activity [33]: 79% | residual activity [34]: 100% | residual activity [35]: 55% | residual activity [36]: 81% | residual activity [37]: 100% | inhibition [38]: -0.66% | residual activity [39]: 78% | residual activity [40]: 40% | residual activity [41]: 70% | residual activity [42]: 78% | residual activity [43]: 93% | residual activity [44]: 90% | residual activity [45]: 76%
